ChEMBL document CHEMBL5537128, “Discovery of LWY713 as a potent and selective FLT3 PROTAC degrader with in vivo activity against acute myeloid leukemia” (Eur J Med Chem, 2024)

biological target: T1, Protein cereblon/Receptor-type tyrosine-protein kinase FLT3 (Homo sapiens, UniProt P36888+Q96SW2); assay: PROTAC activity at CRBN/FLT3 in human MV4-11 cells harboring FLT3-ITD mutation assessed as induction of FLT3 degradation at 10 nM incubated for 24 hrs by immunoblotting analysis relative to control; type: cell-based
Target sequence in this assay (P36888 27-993 limits assumed): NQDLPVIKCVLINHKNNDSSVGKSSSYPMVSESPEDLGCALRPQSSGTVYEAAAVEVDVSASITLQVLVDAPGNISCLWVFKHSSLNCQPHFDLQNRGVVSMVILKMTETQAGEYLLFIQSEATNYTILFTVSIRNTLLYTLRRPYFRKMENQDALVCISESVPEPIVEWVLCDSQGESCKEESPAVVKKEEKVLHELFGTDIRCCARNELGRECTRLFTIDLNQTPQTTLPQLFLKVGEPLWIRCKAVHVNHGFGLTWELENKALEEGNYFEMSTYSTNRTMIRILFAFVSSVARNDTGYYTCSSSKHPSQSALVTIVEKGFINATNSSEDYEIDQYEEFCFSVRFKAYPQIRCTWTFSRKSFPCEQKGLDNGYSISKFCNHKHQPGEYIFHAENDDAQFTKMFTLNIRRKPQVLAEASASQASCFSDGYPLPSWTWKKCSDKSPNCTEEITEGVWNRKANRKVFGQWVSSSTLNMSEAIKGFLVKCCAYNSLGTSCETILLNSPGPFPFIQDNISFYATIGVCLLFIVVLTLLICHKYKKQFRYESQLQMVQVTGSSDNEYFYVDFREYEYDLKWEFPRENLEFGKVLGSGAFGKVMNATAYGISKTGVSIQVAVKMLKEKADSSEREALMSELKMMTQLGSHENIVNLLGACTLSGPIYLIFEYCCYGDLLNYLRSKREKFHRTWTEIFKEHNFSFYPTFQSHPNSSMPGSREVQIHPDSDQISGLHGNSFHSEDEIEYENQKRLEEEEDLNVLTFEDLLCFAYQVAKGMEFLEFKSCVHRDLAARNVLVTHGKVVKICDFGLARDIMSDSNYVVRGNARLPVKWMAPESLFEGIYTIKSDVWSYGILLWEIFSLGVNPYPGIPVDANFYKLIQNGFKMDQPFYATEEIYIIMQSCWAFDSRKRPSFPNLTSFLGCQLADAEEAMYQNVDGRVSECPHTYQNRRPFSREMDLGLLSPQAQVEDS
Target sequence in this assay (Q96SW2 whole entry partner): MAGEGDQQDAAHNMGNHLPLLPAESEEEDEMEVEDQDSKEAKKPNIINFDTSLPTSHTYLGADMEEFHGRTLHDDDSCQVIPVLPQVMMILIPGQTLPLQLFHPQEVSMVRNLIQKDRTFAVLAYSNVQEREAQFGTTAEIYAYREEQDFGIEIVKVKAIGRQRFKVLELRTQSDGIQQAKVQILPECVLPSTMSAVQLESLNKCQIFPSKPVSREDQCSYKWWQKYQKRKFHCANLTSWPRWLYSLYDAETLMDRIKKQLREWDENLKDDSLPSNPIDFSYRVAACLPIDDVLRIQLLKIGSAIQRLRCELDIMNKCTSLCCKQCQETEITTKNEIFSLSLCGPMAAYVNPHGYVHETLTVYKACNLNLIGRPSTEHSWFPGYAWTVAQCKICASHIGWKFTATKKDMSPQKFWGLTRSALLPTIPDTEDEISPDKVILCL

With `CCc1nc(C(N)=O)c(Nc2ccc(N3CCC(N4CCN(C(=O)CCCCCOc5cccc6c5C(=O)N(C5CCC(=O)NC5=O)C6=O)CC4)CC3)c(OC)c2)nc1NC1CCOCC1` (stereo not given) as the compound, how does the Activity read?
The Activity was 36%.

For `CCc1nc(C(N)=O)c(Nc2ccc(N3CCC(N4CCN(C(=O)CCCNc5ccc6c(c5)C(=O)N(C5CCC(=O)NC5=O)C6=O)CC4)CC3)c(OC)c2)nc1NC1CCOCC1` (stereo not given), which Activity is on record?
Its Activity is 9%.

`CCc1nc(C(N)=O)c(Nc2ccc(N3CCC(N4CCN(C(=O)CCCCCCCCCNc5ccc6c(c5)C(=O)N(C5CCC(=O)NC5=O)C6=O)CC4)CC3)c(OC)c2)nc1NC1CCOCC1` (stereo not given) was tested. Which Activity did it give?
Its Activity is 0%.

With `CCc1nc(C(N)=O)c(Nc2ccc(N3CCC(N4CCN(C(=O)CCCOc5cccc6c5C(=O)N(C5CCC(=O)NC5=O)C6=O)CC4)CC3)c(OC)c2)nc1NC1CCOCC1` (stereo not given) as the compound, how does the Activity read?
The Activity was 30%.

Which Activity does the source give for `CCc1nc(C(N)=O)c(Nc2ccc(N3CCC(N4CCN(C(=O)CNc5ccc6c(c5)C(=O)N(C5CCC(=O)NC5=O)C6=O)CC4)CC3)c(OC)c2)nc1NC1CCOCC1` (stereo not given) here?
Its Activity is 52%.

For `CCc1nc(C(N)=O)c(Nc2ccc(N3CCC(N4CCN(C(=O)CCCCCOc5ccc6c(c5)C(=O)N(C5CCC(=O)NC5=O)C6=O)CC4)CC3)c(OC)c2)nc1NC1CCOCC1` (stereo not given), which Activity is on record?
The Activity was 32%.

For `CCc1nc(C(N)=O)c(Nc2ccc(N3CCC(N4CCN(c5cccc6c5C(=O)N(C5CCC(=O)NC5=O)C6=O)CC4)CC3)c(OC)c2)nc1NC1CCOCC1` (stereo not given), which Activity is on record?
Its Activity is 0%.

`CCc1nc(C(N)=O)c(Nc2ccc(N3CCC(N4CCN(C(=O)CCCCCCCOc5ccc6c(c5)C(=O)N(C5CCC(=O)NC5=O)C6=O)CC4)CC3)c(OC)c2)nc1NC1CCOCC1` (stereo not given) was tested. Which Activity did it give?
The Activity was 6%.

For `CCc1nc(C(N)=O)c(Nc2ccc(N3CCC(N4CCN(C(=O)CCCCCCCOc5cccc6c5C(=O)N(C5CCC(=O)NC5=O)C6=O)CC4)CC3)c(OC)c2)nc1NC1CCOCC1` (stereo not given), which Activity is on record?
The Activity was 29%.

With `CCc1nc(C(N)=O)c(Nc2ccc(N3CCC(N4CCN(C(=O)CCCCCCCNc5cccc6c5C(=O)N(C5CCC(=O)NC5=O)C6=O)CC4)CC3)c(OC)c2)nc1NC1CCOCC1` (stereo not given) as the compound, how does the Activity read?
Its Activity is 50%.

For `CCc1nc(C(N)=O)c(Nc2ccc(N3CCC(N4CCN(C(=O)CCCCCNc5ccc6c(c5)C(=O)N(C5CCC(=O)NC5=O)C6=O)CC4)CC3)c(OC)c2)nc1NC1CCOCC1` (stereo not given), which Activity is on record?
The Activity was 52%.

With `CCc1nc(C(N)=O)c(Nc2ccc(N3CCC(N4CCN(c5ccc6c(c5)C(=O)N(C5CCC(=O)NC5=O)C6=O)CC4)CC3)c(OC)c2)nc1NC1CCOCC1` (stereo not given) as the compound, how does the Activity read?
Its Activity is 0%.

How did the Activity turn out when `CCc1nc(C(N)=O)c(Nc2ccc(N3CCC(N4CCN(C(=O)CCCCCCCCCOc5ccc6c(c5)C(=O)N(C5CCC(=O)NC5=O)C6=O)CC4)CC3)c(OC)c2)nc1NC1CCOCC1` (stereo not given) was run?
The Activity was 0%.

With `CCc1nc(C(N)=O)c(Nc2ccc(N3CCC(N4CCN(C(=O)CCCCCCCNc5ccc6c(c5)C(=O)N(C5CCC(=O)NC5=O)C6=O)CC4)CC3)c(OC)c2)nc1NC1CCOCC1` (stereo not given) as the compound, how does the Activity read?
The Activity was 40%.

For `CCc1nc(C(N)=O)c(Nc2ccc(N3CCC(N4CCN(C(=O)CCCCCCCCCOc5cccc6c5C(=O)N(C5CCC(=O)NC5=O)C6=O)CC4)CC3)c(OC)c2)nc1NC1CCOCC1` (stereo not given), which Activity is on record?
Its Activity is 0%.

Which Activity does the source give for `CCc1nc(C(N)=O)c(Nc2ccc(N3CCC(N4CCN(C(=O)CCCOc5ccc6c(c5)C(=O)N(C5CCC(=O)NC5=O)C6=O)CC4)CC3)c(OC)c2)nc1NC1CCOCC1` (stereo not given) here?
The Activity was 0%.

`CCc1nc(C(N)=O)c(Nc2ccc(N3CCC(N4CCN(C(=O)CCCNc5cccc6c5C(=O)N(C5CCC(=O)NC5=O)C6=O)CC4)CC3)c(OC)c2)nc1NC1CCOCC1` (stereo not given) was tested. Which Activity did it give?
Its Activity is 34%.

`CCc1nc(C(N)=O)c(Nc2ccc(N3CCC(N4CCN(C(=O)CCCCCCCCCNc5cccc6c5C(=O)N(C5CCC(=O)NC5=O)C6=O)CC4)CC3)c(OC)c2)nc1NC1CCOCC1` (stereo not given) was tested. Which Activity did it give?
Its Activity is 0%.

For `CCc1nc(C(N)=O)c(Nc2ccc(N3CCC(N4CCN(C(=O)COc5ccc6c(c5)C(=O)N(C5CCC(=O)NC5=O)C6=O)CC4)CC3)c(OC)c2)nc1NC1CCOCC1` (stereo not given), which Activity is on record?
Its Activity is 0%.

biological target: T1, Protein cereblon/Receptor-type tyrosine-protein kinase FLT3; assay: PROTAC activity at CRBN/FLT3 in human MV4-11 cells harboring FLT3-ITD mutation assessed as induction of FLT3 degradation incubated for 24 hrs by immunoblotting analysis; type: cell-based
Target sequence in this assay (P36888 27-993 limits assumed, change not shown): as the sequence (P36888 27-993 limits assumed) above
Target sequence in this assay (Q96SW2 whole entry partner, change not shown): as the sequence (Q96SW2 whole entry partner) above

Which DC50 does the source give for `CCc1nc(C(N)=O)c(Nc2ccc(N3CCC(N4CCN(C(=O)COc5cccc6c5C(=O)N(C5CCC(=O)NC5=O)C6)CC4)CC3)c(OC)c2)nc1NC1CCOCC1` (stereo not given) here?
Its DC50 is 1.01 nM.
